How the values were obtained:
[1] = Solubility of Urolithin A; assay type: physicochemical
From the text: The present disclosure addresses the inventors' recognition that Urolithin A (UA) is insoluble in water, such that a powder containing UA as the main functional ingredient presented the challenge of keeping UA in suspension upon reconstitution of the powder with water. In this regard, UA being insoluble promotes settling of UA at the bottom of the reconstitution container almost immediately. The present disclosure includes various ways of stabilizing Urolithin A in an aqueous matrix, such that when a powder containing UA is reconstituted, the UA remains in suspension.
Comparative experimental data was generated to investigate the possibility of stabilization of UA in an aqueous matrix.

[2] = Suspension of Urolithin A upon reconstitution of powder in water; assay type: physicochemical
Protocol: • 1. Initially the base selected was brown rice syrup powder to which UA was added. […] UA forms a suspension in oil, so another experiment used brown rice syrup powder with canola oil powder and whey protein.
Specifically, different gums and concentrations of gums were investigated with UA and a filler that was brown rice syrup powder: • 1. Guar gum • 2. PHGG • 3. Combination of guar and xanthan • 4. Acacia gum • 5. Gellan gum • 6. FMC Gum blend • 7. Xanthan gum
Table 1 (below) sets forth the formulations of the samples testing various gums with UA. FIGS. 3A and 3B set forth the results from these samples.
Some embodiments of the compositions disclosed herein include fruit flavor and thus citric acid. […] Table 2 (below) sets forth the formulations of the samples testing various gums with UA and citric acid. FIGS. 4A and 4B sets forth the results from these samples.
For each sample, after mixing the powder with water, five minutes elapsed, then the suspension was mixed again, and then viscosity was measured. Out of the various experiments, xanthan gum provided the best solution of not only keeping UA in suspension but also the desired viscosity, easily dissolved, and no off taste/odor to the product.
A range of xanthan gum amounts were then studied (Table 3 and FIG. 5). […]

O=c1oc2cc(O)ccc2c2ccc(O)cc12 [Urolithin A]
solubility in oil ([1]; oil): sparingly soluble
solubility in water ([1]; water): insoluble
suspension of UA in an oil matrix [2]: forms a good suspension
